Laboratory results taken from patent US9708314B2, “Heterocyclic amide compound” (NISSAN CHEMICAL INDUSTRIES, LTD., priority 2013, dated 2017).

Key:
[1] = tested on: transplanted Oryza sativa; test: Test Example 1: effect on crop, application before weed generation in submerged conditions; assay type: in vivo; settings: Application herbicide amount 320 g/ha; Seventeenth Table
Procedure, shortened: (§1)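 Pre-emergence water-surface application under 4 cm flooding, same day as sowing, with rice transplanted at 2.5 leaf stage. Dose given as g/ha. Plants grown at 25° C. to 30° C. and rated three weeks later on a 0 (≤5%) to 5 (≥90%) herbicidal-ratio scale.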

Scirpus juncoides [2] = test: Test Example 1: herbicidal activity, application before weed generation in submerged conditions; assay type: in vivo; settings: Application herbicide amount 320 g/ha; Seventeenth Table
Procedure, shortened: as §1

[3] = tested on: Echinochloa oryzacola Vasing.; test: as above; assay type: in vivo; settings: Application herbicide amount 320 g/ha; Seventeenth Table
Procedure, shortened: as §1

Monochoria vaginalis [4] = test: as above; assay type: in vivo; settings: Application herbicide amount 320 g/ha; Seventeenth Table
Procedure, shortened: as §1

Scirpus juncoides [5] = test: Test Example 2: herbicidal activity, application during weed generation in submerged conditions; assay type: in vivo; settings: Eighteenth Table; application herbicide amount 320 g/ha
Procedure, shortened: (§2)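 Scored three weeks post-application on a 0–5 scale (5: ≥90% herbicidal ratio, almost withered; 0: ≤5%). Plants raised from mixed-sown seed in submerged alluvial soil (4 cm water), 25–30 °C greenhouse; water-diluted emulsion applied onto water surface at one- to two-leaf stage, dose in g/ha.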

[6] = tested on: Echinochloa oryzacola Vasing.; test: as above; assay type: in vivo; settings: Eighteenth Table; application herbicide amount 320 g/ha
Procedure, shortened: as §2

Monochoria vaginalis [7] = test: as above; assay type: in vivo; settings: Eighteenth Table; application herbicide amount 320 g/ha
Procedure, shortened: as §2

For COCc1nnc2c(C(=O)Nc3nnnn3C)ccc(C(F)(F)F)n12 [2-010, 3-(Methoxymethyl)-N-(1-methyl-1H-tetrazol-5-yl)-5-(trifluoromethyl)-[1,2,4]triazol o[4,3-a]pyridine-8-carboxamide], the “a: transplanted Oryza sativa (effect on crop grade)” value (“a: transplanted Oryza sativa” below) [1] was 4 (Herbicidal ratio of 70% or more and less than 90%), the melting point was 205 to 209 °C and the “B: Scirpus juncoides (herbicidal effect grade)” value (from here on “B: Scirpus juncoides”) (Scirpus juncoides [2]) was 5 (Herbicidal ratio of 90% or more (almost completely withered)). The “A: Echinochloa oryzicola Vasing. (herbicidal effect grade)” value [3] was 5 (Herbicidal ratio of 90% or more (almost completely withered)), the “C: Monochoria vaginalis (herbicidal effect grade)” value (“C: Monochoria vaginalis” for short) (Monochoria vaginalis [4]) was 4 (Herbicidal ratio of 70% or more and less than 90%) and the “B (Scirpus juncoides) herbicidal ratio grade” value (Scirpus juncoides [5]) was 4 (Herbicidal ratio of 70% or more and less than 90%). The “A (Echinochloa oryzicola Vasing.) herbicidal ratio grade” value [6] was 5 (Herbicidal ratio of 90% or more (almost completely withered)) and the “C (Monochoria vaginalis) herbicidal ratio grade” value (Monochoria vaginalis [7]) was 4 (Herbicidal ratio of 70% or more and less than 90%).
With CC(C)[S+]([O-])c1nnc2c(C(=O)Nc3nnnn3C)ccc(C(F)(F)F)n12 (stereo not shown) [2-032] the “a: transplanted Oryza sativa” value [1] was 5 (Herbicidal ratio of 90% or more (almost completely withered)), the “B: Scirpus juncoides” value (Scirpus juncoides [2]) was 5 (Herbicidal ratio of 90% or more (almost completely withered)) and the “A: Echinochloa oryzicola Vasing. (herbicidal effect grade)” value [3] was 5 (Herbicidal ratio of 90% or more (almost completely withered)). For the same compound, the “C: Monochoria vaginalis” value (Monochoria vaginalis [4]) was 5 (Herbicidal ratio of 90% or more (almost completely withered)), the “B (Scirpus juncoides) herbicidal ratio grade” value (Scirpus juncoides [5]) was 5 (Herbicidal ratio of 90% or more (almost completely withered)) and the “A (Echinochloa oryzicola Vasing.) herbicidal ratio grade” value [6] was 5 (Herbicidal ratio of 90% or more (almost completely withered)). For the same compound, the “C (Monochoria vaginalis) herbicidal ratio grade” value (Monochoria vaginalis [7]) was 5 (Herbicidal ratio of 90% or more (almost completely withered)).
With Cn1nnnc1NC(=O)c1ccc(C(F)(F)F)n2c(C[S+](C)[O-])nnc12 (stereo not shown) [2-033] the “a: transplanted Oryza sativa” value [1] was 4 (Herbicidal ratio of 70% or more and less than 90%), the “B: Scirpus juncoides” value (Scirpus juncoides [2]) was 4 (Herbicidal ratio of 70% or more and less than 90%) and the “A: Echinochloa oryzicola Vasing. (herbicidal effect grade)” value [3] was 5 (Herbicidal ratio of 90% or more (almost completely withered)). The “C: Monochoria vaginalis” value (Monochoria vaginalis [4]) was 5 (Herbicidal ratio of 90% or more (almost completely withered)), the “B (Scirpus juncoides) herbicidal ratio grade” value (Scirpus juncoides [5]) was 3 (Herbicidal ratio of 40% or more and less than 70%) and the “A (Echinochloa oryzicola Vasing.) herbicidal ratio grade” value [6] was 4 (Herbicidal ratio of 70% or more and less than 90%). For the same compound, the “C (Monochoria vaginalis) herbicidal ratio grade” value (Monochoria vaginalis [7]) was 4 (Herbicidal ratio of 70% or more and less than 90%).
